From patent publication US4847302A, “Use of certain compounds in livestock food as growth promotants for better feed utilization and improved carcass composition” (Merck & Co., Inc., priority 1988, dated 1989)
Read-outs that look alike come from different tables or passages of the source.

Key:
[1] = test system: Isolated Chicken Hepatocytes; test: Inhibition of lipogenesis (14C acetate incorporation) in isolated chicken hepatocytes; type: cell-based; details: Gallus gallus, Hepatocyte, 2 h
Method: Determination of anti-lipogenic activity in hepatocytes
Hepatocytes were isolated from chicken liver using the procedure for adipocytes and incubated for 2 hours at 37° C. in the presence of ^14 C acetate and test compounds. […] Isoproterenol, at the same concentrations, was used as a positive control. After incubation, 8 ml Doles reagent (isopropanol:hexane:H2 SO4, 40:10:1) was added and incubation vials were shaken at room temperature for 30 minutes. Vial contents were poured into 50 ml screw-cap tubes. Vials were then rinsed with 6 ml hexane which was poured into the appropriate 50 ml tube. Tubes were shaken by hand, 10 ml H2 O was added, and tubes were shaken again. After phase separation, 2 ml of the upper (hexane) phase was removed to scintillation vials. Hexane was evaporated by a gentle air flow and the remaining lipids were resuspended in 10 ml Scinti Verse II. ^14 C was counted in a Packard liquid scintillation counter. Data are reported as CPM of ^14 C acetate incorporated into total lipids.

[2] = test system: Isolated Swine Adipocytes; test: Stimulation of lipolysis (glycerol production) in isolated swine adipocytes; type: cell-based; details: for activation at 0.01 µM / activation at 0.05 µM / activation at 0.25 µM: Sus scrofa, Adipocyte, 2 h
Method: (§1) Fat was collected from freshly killed animals as follows: epididymal and perirenal fat from 150 to 200 g male rates; perirenal fat from 20 to 25 kg whether lambs, and perirenal and omental fat from 35 to 50 kg gilts. Immediately after collection, fat was placed in a siliconized beaker (all glassware was siliconized) containing Krebs-Ringer bicarbonate solution (KRB; pH 7.4) at 37° C. Fat was transferred to a clean beaker and finely chopped with scissors. Chopped fat was then used as such (whole adipose preparation) or treated with collagenase (isolated adipocytes).
(§2) Chopped fat was placed in a shaker containing 70 ml cell dispersion medium (CDM; 5 mM glucose, 0.1% collagenase, 4% bovine serum albumin (BSA), in KRB) and incubated at 37° C. for 1 hour with gentle shaking. Fat was then filtered to remove clumps and washed 4 times with washing medium (WM; 2.5 mM glucose, 1% BSA, in KRB) and 1 time with final suspension medium (FSM; 2.5 mM glucose, 2% essentially fatty acid free BSA, in KRB). Isolated adipocytes were then resuspended in the required amount of FSM (1 ml/flask, 3 flasks/treatment).
(§3) Whole adipose tissue from the rat (0.3 ml) or isolated adipocytes from sheep or swine (1 ml) were placed in plastic scintillation vials containing FSM (1.7 or 1 ml, respectively) and test compounds, and incubated at 37° C. for 2 hours. […] Isoproterenol, at the same concentrations, was used as a positive control. After incubation, media was removed and assayed for glycerol by a fluorometric modification of the method of Wieland (1974. Glycerol UV-method. pp. 1404. In: Bergmeyer (Ed.) Methods of Enzymatic Analysis. Verlag Chemie Weinham, Academic Press, New York).

[3] = test system: Isolated Ovine Adipocytes; test: Stimulation of lipolysis (glycerol production) in isolated ovine adipocytes; type: cell-based, sheep
Method: as §1, §2, §3

Rat Adipose Tissue = test: Stimulation of lipolysis (glycerol production) in chopped rat adipose tissue; type: cell-based; details: Rattus norvegicus, 2 h
Method: as §1
as §3, with “York). […]” for “York).”

[4] = In vivo testing in rats: growth, feed conversion and carcass composition; set-up: species or system rat (male Charles River CD); details: in diet; for Gain / Feed Intake / Weight / Carcass Composition % of Change over Control, Fat / Carcass Composition % of Change over Control, Protein: dose equivalent to 20 ppm clenbuterol (clenbuterol: 10)
Text: Eighty intact, male Charles River CD rats, 75-90 g, were housed and maintained on rat chow and water ad libitum. After four days acclimation ten rats per group were randomized by weight to treatment and pen. Compounds to be tested were premixed and added to ground rat chow using doses equivalent to 20 ppm of clenbuterol on a molecular weight basis. It had previously been determined 10 ppm of clenbuterol was the minimum dose needed to give maximum improvements in gain and feed conversion. Therefore, the results of any compound tested should cause responses similar to clenbuterol if the compound has half or more the activity of clenbuterol.

[5] = Growth, feed conversion and carcass composition of broilers raised in floor pens for 7 weeks; type: in vivo; details: 0.5 ppm in diet
Method: Compound V (bitolterol) was compared to clenbuterol for effects on growth, feed conversion and carcass composition of broilers raised in floor pens for 7 weeks. […] Bitolterol at the highest dose improved rate of gain 2.6% (P 0.01), feed conversion 3.8% (P 0.05) and carcass protein 4.9% (P 0.10).
Clenbuterol at 0.5 ppm in the diet was administered for 7 weeks to one group and only during the last 4 weeks to another group. […] Clenbuterol given for 7 weeks improved feed conversion 3.5% (P 0.05) and appeared to improve (not significant) rate of gain 0.4%, carcass weight 0.7% and carcass protein 4.0% and to decrease (not significant) carcass fat 7.1%.

[6] = Growth promoting activity / feed utilization in livestock (general statements); type: in vivo; details: poultry, sheep or swine
[7] = Baker et al., Fed. Proc. 42; some species of food livestock; cited from earlier work
[8] = read-out: percent change compared to control, 14C acetate incorporation in fatty acids, Test 1
[9] = read-out: percent change compared to control, 14C acetate incorporation in fatty acids, Test 2
[10] = read-out: percent increase compared to control, glycerol production, Test 1
[11] = read-out: percent increase compared to control, glycerol production, Test 2

`CC(C)(C)NCC(O)c1cc(Cl)c(N)c(Cl)c1` (stereo not shown) [Clenbuterol, clenbuterol] gave an inhibition at 0.01 µM [1, 8] of 4.2%, an inhibition at 0.05 µM [1, 8] of 16.4% and an inhibition at 0.25 µM [1, 8] of 24.6%. The inhibition at 0.01 µM [1, 9] was 8%, the inhibition at 0.05 µM [1, 9] was 18% and the inhibition at 0.25 µM [1, 9] was 16%. For the same molecule, the activation at 0.01 µM [2, 10] was 27%, the activation at 0.05 µM [2, 10] was -20% and the activation at 0.25 µM [2, 10] was -27%. The activation at 0.01 µM [2, 11] was 0%, the activation at 0.05 µM [2, 11] was -20% and the activation at 0.25 µM [2, 11] was 4%. For the same molecule, the “lipolytic activity (in words)” value ([2]; isolated swine adipocytes) was “lack of activity”, the activation at 0.05 µM ([3]; Ovis aries, Adipocyte, 2 h, read-out: percent increase compared to control, glycerol production, Test 1) was 240% and the activation at 0.25 µM ([3]; Ovis aries, Adipocyte, 2 h, read-out: percent increase compared to control, glycerol production, Test 1, 0.25 μM) was 325%. The activation at 0.01 µM ([3]; Ovis aries, Adipocyte, 2 h, read-out: percent increase compared to control, glycerol production, Test 2, 0.01 μM) was 186%, the activation at 0.05 µM ([3]; Ovis aries, Adipocyte, 2 h, read-out: percent increase compared to control, glycerol production, Test 2) was 857% and the “percent increase compared to control, glycerol production” value ([3]; Test 1, 0.01 μM) was “inactive”. It also gave an activation at 0.01 µM (Rat Adipose Tissue; [10]) of 12%, an activation at 0.05 µM (Rat Adipose Tissue; [10]) of 26% and an activation at 0.25 µM (Rat Adipose Tissue; [10]) of 21%. It also gave an activation at 0.01 µM (Rat Adipose Tissue; [11]) of 10%, an activation at 0.05 µM (Rat Adipose Tissue; [11]) of 10% and an activation at 0.25 µM (Rat Adipose Tissue; [11]) of 16%. The Gain ([4]; Test 1, control 7.3) was 7.8 g/day, the “Feed Intake” value ([4]; Test 1, control 18.6) was 19.2 g/day and the Weight ([4]; Test 1, control 191.8) was 198.6 g. The “Carcass Composition % of Change over Control, Fat” value ([4]; Test 1) was -11.3%, the “Carcass Composition % of Change over Control, Protein” value ([4]; Test 1) was 11.2% and the Gain ([4]; Test 2, control 7.5) was 8.2 g/day. For the same molecule, the “Feed Intake” value ([4]; Test 2, control 19.3) was 19.9 g/day, the Weight ([4]; Test 2, control 202.3) was 216.9 g and the “Carcass Composition % of Change over Control, Fat” value ([4]; Test 2) was -11.9%. For the same molecule, the “Carcass Composition % of Change over Control, Protein” value ([4]; Test 2) was 4.3%, the “minimum dose needed to give maximum improvements in gain and feed conversion” value ([4]; previously determined) was 10 ppm and the “feed conversion and carcass protein, 7 weeks versus 4 weeks of administration” value [5] was “slightly more effective”. The “improvement of feed conversion” value ([5]; 7 weeks, P 0.05) was 3.5%, the “decrease of carcass fat” value ([5]; 7 weeks, not significant) was 7.1% and the “improvement of carcass protein” value ([5]; 7 weeks, not significant) was 4.0%. The “improvement of carcass weight” value ([5]; 7 weeks, not significant) was 0.7%, the “improvement of rate of gain” value ([5]; 7 weeks, not significant) was 0.4% and the “activity compared with other compounds in poultry, sheep or swine” value [6] was “not as active as other compounds in poultry, sheep or swine”. The “enhancement of food utilization and change of carcass composition” value [7] was “functions in this way”.
